Patent US20260199273A1, “Compounds for the Treatment of Neuromuscular Disorders” (NMD PHARMA A/S, priority 2022, published 2026)

biological target: T1, CIC-1 ion channel (Rattus norvegicus, UniProt P35524); experiment: Electrophysiological measurement of compound inhibition of CIC-1 in rat muscle (Gm in soleus fibres, three micro-electrodes); type: cell-based; settings: Gm in individual fibres of whole rat soleus muscles, approx. 30° C., four increasing compound concentrations; read-out: Potency Range (EC50, inhibition of CIC-1 ion channel)
T1 construct: from tissue; host or cells: whole soleus muscle of 12-14 week old Wistar rats
T1 sequence (P35524 1-994): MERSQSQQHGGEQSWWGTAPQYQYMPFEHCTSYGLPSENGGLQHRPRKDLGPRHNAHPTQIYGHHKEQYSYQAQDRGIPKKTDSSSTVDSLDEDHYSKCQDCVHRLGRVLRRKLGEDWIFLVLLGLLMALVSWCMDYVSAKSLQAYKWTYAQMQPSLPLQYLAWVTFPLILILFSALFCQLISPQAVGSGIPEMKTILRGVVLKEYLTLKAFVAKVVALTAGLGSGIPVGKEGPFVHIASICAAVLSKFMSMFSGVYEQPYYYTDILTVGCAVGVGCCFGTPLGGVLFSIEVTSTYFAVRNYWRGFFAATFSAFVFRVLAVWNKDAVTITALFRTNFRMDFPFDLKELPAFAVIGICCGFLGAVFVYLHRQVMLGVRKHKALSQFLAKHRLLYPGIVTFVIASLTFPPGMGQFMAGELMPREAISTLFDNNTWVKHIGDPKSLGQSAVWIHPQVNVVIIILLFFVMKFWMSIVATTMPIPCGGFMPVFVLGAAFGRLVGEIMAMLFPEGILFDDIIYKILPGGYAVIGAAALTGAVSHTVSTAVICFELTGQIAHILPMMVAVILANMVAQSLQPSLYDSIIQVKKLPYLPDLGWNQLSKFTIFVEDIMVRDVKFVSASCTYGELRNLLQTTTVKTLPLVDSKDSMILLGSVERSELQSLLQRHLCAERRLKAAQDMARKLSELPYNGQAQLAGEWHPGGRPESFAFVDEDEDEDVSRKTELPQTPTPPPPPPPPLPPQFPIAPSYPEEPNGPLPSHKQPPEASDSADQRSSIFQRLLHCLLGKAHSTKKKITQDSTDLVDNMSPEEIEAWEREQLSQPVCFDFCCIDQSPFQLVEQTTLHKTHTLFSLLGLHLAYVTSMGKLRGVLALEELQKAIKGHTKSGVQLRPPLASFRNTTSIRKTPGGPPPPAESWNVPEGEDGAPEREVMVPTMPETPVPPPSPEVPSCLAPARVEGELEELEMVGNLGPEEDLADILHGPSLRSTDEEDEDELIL
Experimental: Apparent CIC-1 affinity was reported by the concentration of compound at which 50% of the compound's full inhibition of CIC-1 was observed (EC50) (see also WO2019/115777).
Experimentally, Gm was measured in individual fibres of whole rat soleus muscles using a three micro-electrodes technique described in this example and in full detail elsewhere (Riisager et al., Determination of cable parameters in skeletal muscle fibres during repetitive firing of action potentials. Journal of Physiology, 2014, 592, 4417-4429). Briefly, intact rat soleus muscles were dissected out from 12-14 week old Wistar rats and placed in an experimental chamber that was perfused with a standard Krebs Ringer solution containing 122 mM NaCl, 25 mM NaHCO3, 2.8 mM KCl, 1.2 mM KH2PO4, 1.2 mM MgSO4, 1.3 mM CaCl2, 5.0 mM D-glucose. During experiments, the solution was kept at approx. 30° C. and continuously equilibrated with a mixture of 95% O2 and 5% CO2, pH ~7.4. The experimental chamber was placed in Nikon upright microscope that was used to visualize individual muscle fibres and the three electrodes (glass pipettes filled with 2 M potassium citrate). For Gm measurements, the electrodes were inserted into the same fibre with known inter-electrode distances of 0.35-0.5 mm (V1-V2, X1) and 1.1-1.5 mm (V1-V3, X3). The membrane potential of the impaled muscle fibre was recorded by all electrodes. Two of the electrodes were furthermore used to inject 50 ms current pulses of −30 nA. […] The steady state voltage deflection at each distance was divided by the magnitude of current injected (−30 nA) and the resulting transfer resistances were plotted against inter-electrode distance and the data was fitted to a mono-exponential function from which Gm could be calculated using linear cable theory.
To establish a dose response relationship, Gm was first determined in 10 muscle fibres in the absence of compound and then at four increasing compound concentrations with Gm determinations in 5-10 fibres at each concentration. The average Gm values at each concentration were plotted against compound concentration and the data was fitted to sigmoidal function to obtain an EC5o value.

EC50	SMILES
2000 to 10000 nM	O=C(O)c1c2c(cc(Cl)c1OC(F)F)CCC2 [Compound A-10, 6-Chloro-5-(difluoromethoxy)-2,3-dihydro-1H-indene-4-carboxylic acid]
200 to 2000 nM	O=C(O)c1c(F)c(Cl)cc2c1CCCO2 [Compound A-39, 7-Chloro-6-fluoro-3,4-dihydro-2H-1-benzopyran-5-carboxylic acid]
200 to 2000 nM	COc1c(Cl)cc2c(c1C(=O)O)CCCC2 [Compound A-8, 3-Chloro-2-methoxy-5,6,7,8-tetrahydronaphthalene-1-carboxylic acid]
10000 to 20000 nM	Cc1c(Cl)cc2c(c1C(=O)O)C1CCC2C1 (stereo not shown) [Compound A-21, 5-chloro-4-methyltricyclo[6.2.1.0^2,7]undeca-2(7),3,5-triene-3-carboxylic acid]
2000 to 10000 nM	Cc1cc2c(c(C(=O)O)c1F)SCCC2 [Compound A-48, 7-fluoro-6-methyl-3,4-dihydro-2H-1-benzothiopyran-8-carboxylic acid]
200 to 2000 nM	O=C(O)c1c(F)c(Cl)cc2c1CCCC2 [Compound A-26, 3-Chloro-2-fluoro-5,6,7,8-tetrahydronaphthalene-1-carboxylic acid]
2000 to 10000 nM	COc1c(Cl)cc2c(c1C(=O)O)OCC2 [Compound A-15, 5-Chloro-6-methoxy-2,3-dihydro-1-benzofuran-7-carboxylic acid]
2000 to 10000 nM	COc1c(Cl)cc2c(c1C(=O)O)C(F)(F)CCC2 [Compound A-59, 3-chloro-8,8-difluoro-2-methoxy-5,6,7,8-tetrahydronaphthalene-1-carboxylic acid]
2000 to 10000 nM	Cc1cc2c(c(C(=O)O)c1Cl)CCCC2 [Compound A-28, 2-chloro-3-methyl-5,6,7,8-tetrahydronaphthalene-1-carboxylic acid]
2000 to 10000 nM	O=C(O)c1c(Cl)c(F)cc2c1OCCCC2 [Compound A-56, 8-chloro-7-fluoro-2,3,4,5-tetrahydro-1-benzoxepine-9-carboxylic acid]
10000 to 20000 nM	Cc1c(Cl)cc2c(c1C(=O)O)CCC2 [Compound A-1, 6-Chloro-5-methyl-2,3-dihydro-1H-indene-4-carboxylic acid]
200 to 2000 nM	COc1c(Cl)c(F)c2c(c1C(=O)O)CCCC2 [Compound A-19, 3-Chloro-4-fluoro-2-methoxy-5,6,7,8-tetrahydronaphthalene-1-carboxylic acid]
2000 to 10000 nM	COc1c(C)cc2c(c1C(=O)O)CCC2 [Compound A-47, 5-Methoxy-6-methyl-2,3-dihydro-1H-indene-4-carboxylic acid]
2000 to 10000 nM	COc1cc2c(c(C(=O)O)c1Cl)CCCCC2 [Compound A-24, 2-Chloro-3-methoxy-6,7,8,9-tetrahydro-5H-benzo[7]annulene-1-carboxylic acid]
200 to 2000 nM	O=C(O)c1c(Cl)c(Cl)cc2c1CCCC2 [Compound A-30, 2,3-Dichloro-5,6,7,8-tetrahydronaphthalene-1-carboxylic acid]
2000 to 10000 nM	Cc1c(Cl)cc2c(c1C(=O)O)CCCCC2 [Compound A-33, 3-Chloro-2-methyl-6,7,8,9-tetrahydro-5H-benzo[7]annulene-1-carboxylic acid]
2000 to 10000 nM	Cc1cc2c(c(C(=O)O)c1Cl)C1CCC2C1 (stereo not shown) [Compound A-20, 4-chloro-5-methyltricyclo[6.2.1.0^2,7]undeca-2,4,6-triene-3-carboxylic acid]

system: isolated rat soleus nerve-muscle preparations; experiment: Measurement of force in an in vitro model: recovery of nerve-stimulated contractile force after tubocurarine; settings: 40 min, 10 μM of test compound, after 40 mins of compound exposure, tubocurarine (115 nM) for 90 minutes, read-out: Point increase (%): percentage increase of initial force that was restored
In short: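 Isolated soleus nerve-muscle preparations from 4-5 week old rats, nerve-stimulated in Krebs Ringer at 30° C, 95% O2/5% CO2, pH ~7.4. Force reduced with 115 nM tubocurarine for 90 min, then compound added. Value is percentage-point increase in initial force restored after 40 min compound exposure.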

SMILES	activation at 10 µM
O=C(O)c1c2c(cc(Cl)c1OC(F)F)CCC2 [Compound A-10, 6-Chloro-5-(difluoromethoxy)-2,3-dihydro-1H-indene-4-carboxylic acid]	36%
O=C(O)c1c(F)c(Cl)cc2c1CCCO2 [Compound A-39, 7-Chloro-6-fluoro-3,4-dihydro-2H-1-benzopyran-5-carboxylic acid]	59%
COc1c(Cl)cc2c(c1C(=O)O)CCCC2 [Compound A-8, 3-Chloro-2-methoxy-5,6,7,8-tetrahydronaphthalene-1-carboxylic acid]	50%
Cc1cc2c(c(C(=O)O)c1F)SCCC2 [Compound A-48, 7-fluoro-6-methyl-3,4-dihydro-2H-1-benzothiopyran-8-carboxylic acid]	25%
O=C(O)c1c(F)c(Cl)cc2c1CCCC2 [Compound A-26, 3-Chloro-2-fluoro-5,6,7,8-tetrahydronaphthalene-1-carboxylic acid]	52%
COc1c(Cl)cc2c(c1C(=O)O)C(F)(F)CCC2 [Compound A-59, 3-chloro-8,8-difluoro-2-methoxy-5,6,7,8-tetrahydronaphthalene-1-carboxylic acid]	53%
O=C(O)c1c(Cl)c(F)cc2c1OCCCC2 [Compound A-56, 8-chloro-7-fluoro-2,3,4,5-tetrahydro-1-benzoxepine-9-carboxylic acid]	31%
O=C(O)c1c(Cl)c(Cl)cc2c1CCCC2 [Compound A-30, 2,3-Dichloro-5,6,7,8-tetrahydronaphthalene-1-carboxylic acid]	45%
Cc1c(Cl)cc2c(c1C(=O)O)CCCCC2 [Compound A-33, 3-Chloro-2-methyl-6,7,8,9-tetrahydro-5H-benzo[7]annulene-1-carboxylic acid]	17%

same assay, conditions: 40 min, 50 μM of test compound, after 40 mins of compound exposure, tubocurarine (115 nM) for 90 minutes, read-out: Point increase (%): percentage increase of initial force that was restored

SMILES	activation at 50 µM
Cc1c(Cl)cc2c(c1C(=O)O)C1CCC2C1 (stereo not shown) [Compound A-21, 5-chloro-4-methyltricyclo[6.2.1.0^2,7]undeca-2(7),3,5-triene-3-carboxylic acid]	42%
COc1c(Cl)cc2c(c1C(=O)O)OCC2 [Compound A-15, 5-Chloro-6-methoxy-2,3-dihydro-1-benzofuran-7-carboxylic acid]	40%
Cc1cc2c(c(C(=O)O)c1Cl)CCCC2 [Compound A-28, 2-chloro-3-methyl-5,6,7,8-tetrahydronaphthalene-1-carboxylic acid]	39%
Cc1c(Cl)cc2c(c1C(=O)O)CCC2 [Compound A-1, 6-Chloro-5-methyl-2,3-dihydro-1H-indene-4-carboxylic acid]	23%
COc1c(Cl)c(F)c2c(c1C(=O)O)CCCC2 [Compound A-19, 3-Chloro-4-fluoro-2-methoxy-5,6,7,8-tetrahydronaphthalene-1-carboxylic acid]	41%
COc1c(C)cc2c(c1C(=O)O)CCC2 [Compound A-47, 5-Methoxy-6-methyl-2,3-dihydro-1H-indene-4-carboxylic acid]	37%
COc1cc2c(c(C(=O)O)c1Cl)CCCCC2 [Compound A-24, 2-Chloro-3-methoxy-6,7,8,9-tetrahydro-5H-benzo[7]annulene-1-carboxylic acid]	43%
Cc1cc2c(c(C(=O)O)c1Cl)C1CCC2C1 (stereo not shown) [Compound A-20, 4-chloro-5-methyltricyclo[6.2.1.0^2,7]undeca-2,4,6-triene-3-carboxylic acid]	38%
